Results reported in US20120129897A1, “BIS HETEROARYL INHIBITORS OF PRO-MATRIX METALLOPROTEINASE ACTIVATION” (priority 2010, published 2012).

Experiments:
proMMP9 = target: T1, proMMP9 (Rattus norvegicus, UniProt P50282); test: Activation of proMMP9 in rat synoviocyte cultures (Western blot); format: cell-based; details: for Signal of 80 kD band (INT*mm^2): final 48 hrs, TNFα-stimulated, pAb-1246; for 80 kD active MMP9 form detected with mAb L51/82 / 80 kD active MMP9 detected with pAb-1246: 0.37-10 μM; for 80 kD active MMP9 form detected with mAb L51/82: FIG. 1A; for 80 kD active MMP9 detected with pAb-1246: FIG. 1B
T1 construct: endogenous in cells; host or cells: primary synoviocytes from arthritic female Lewis rats
T1 sequence (P50282 20-708 limits assumed): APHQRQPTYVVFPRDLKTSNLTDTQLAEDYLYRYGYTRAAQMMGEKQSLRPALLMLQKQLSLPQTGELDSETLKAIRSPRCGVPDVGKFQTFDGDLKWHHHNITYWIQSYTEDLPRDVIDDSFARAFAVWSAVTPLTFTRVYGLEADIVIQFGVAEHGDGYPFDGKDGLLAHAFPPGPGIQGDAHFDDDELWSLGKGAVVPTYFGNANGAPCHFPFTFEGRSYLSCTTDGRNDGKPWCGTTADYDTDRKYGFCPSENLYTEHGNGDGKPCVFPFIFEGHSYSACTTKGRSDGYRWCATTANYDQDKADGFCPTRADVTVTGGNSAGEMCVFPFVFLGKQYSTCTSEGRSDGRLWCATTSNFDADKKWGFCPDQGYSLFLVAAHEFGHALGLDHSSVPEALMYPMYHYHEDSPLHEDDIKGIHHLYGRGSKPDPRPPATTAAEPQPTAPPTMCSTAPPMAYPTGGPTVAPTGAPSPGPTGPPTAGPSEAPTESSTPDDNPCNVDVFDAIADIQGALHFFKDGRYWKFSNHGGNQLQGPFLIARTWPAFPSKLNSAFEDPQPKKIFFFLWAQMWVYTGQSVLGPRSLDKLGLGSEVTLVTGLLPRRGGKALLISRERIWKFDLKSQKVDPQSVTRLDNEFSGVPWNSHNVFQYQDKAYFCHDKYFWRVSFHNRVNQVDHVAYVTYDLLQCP
From the text: A primary synoviocytes line was derived from the periarticular tissue of arthritic rats. Arthritis was induced in female Lewis rats following an i.p. administration of streptococcal cell wall peptidoglycan polysaccharides (J Exp Med 1977; 146:1585-1602). Rats with established arthritis were sacrificed, and hind-limbs were severed, immersed briefly in 70% ethanol, and placed in a sterile hood. The skin was removed and the inflamed tissue surrounding the tibia-tarsal joint was harvested using a scalpel. Tissue from six rats was pooled, minced to approximately 8 mm^3 pieces, and cultured in Dulbecco's Modified Eagle's Medium (DMEM) containing 15% fetal calf serum (FCS). In the following weeks, cells migrated out of the tissue piece, proliferated, and formed a monolayer of adherent cells. The synoviocytes were lifted from culture plates with 0.05% trypsin and passaged weekly at 1:4 ratios in DMEM containing 10% FCS. Synoviocytes were used at passage 9 to investigate the ability of Compound-α to inhibit the maturation of MMP9 to active form.
Rat synoviocytes spontaneously expressed and activated MMP9 when cultured in collagen gels and stimulated with tumor necrosis factor-alpha (TNFα) (FIG. 1 and Table 3). Eight volumes of an ice-cold solution of 3.8 mg/mL rat tail collagen (Sigma Cat #C3867-1VL) were mixed with 1 volume of 1 M sodium bicarbonate and 1 volume of 10× Roswell Park Memorial Institute medium. The pH of the mixture was adjusted to pH 7 with 1 N sodium hydroxide and equal volumes of the pH-adjusted collagen solution were mixed with DMEM containing 0.8 million synoviocytes per mL. One half mL volumes were dispensed into Costar 24-well culture dishes and placed for one hr at 37° C. and 5% CO2, during which time the collagen solution formed a gel. Individual gels were dislodged into wells of 12-well Costar plates containing 1 mL/well of DMEM adjusted to contain 0.05% BSA and 100 ng/mL mouse TNFα (R&D Systems Cat #410-MT-010). […] After overnight culture at 37° C. and 5% CO2, wells were adjusted to contain an additional 0.5 mL of DMEM containing 0.05% BSA and Compound-α at 4× the final desired concentration (final culture volumes were 2 mL). The plates were cultured an additional 48 hrs, at which time 1 mL of conditioned media were harvested into fresh eppendorf tubes containing 40 μL/mL of a 50% slurry of gelatin-conjugated sepharose (GE Healthcare Cat #17-0956-01). Samples were rotated for 2 hrs at 4° C. before centrifugation 1 min×200 g. Supernatants were discarded. The gelatin-sepharose pellets were washed once with 1 mL of ice cold DMEM, resuspended in 50 μL of 2× reducing Leamli buffer and heated 5 min at 95° C. Fifteen μL of eluted proteins were resolved on 4-12% NuPAGE gels and transferred to 0.45 μm pore-sized nitrocellose blots. Next, blots were incubated in blocking buffer (5% milk in Tris-buffered saline containing 0.1% Tween-20) for 1 hr at RT and probed overnight (4° C.) with blocking buffer containing 1 μg/mL primary antibodies. Blots were next probed 1 hr at RT with 1/10,000 dilutions of goat anti-mouse IgG-HRP or goat anti-rabbit IgG-HRP (Santa Cruz) in blocking buffer and developed using SuperSignal® West Fempto Maximum Sensitivity Substrate. Chemiluminesence signal was analyzed using a ChemiDoc imaging system (BioRad Laboratories) and Quantity One® image software. Electrophoretic mobility was estimated based on the mobility of standards (Novex Sharp Pre-Stained Protein Standards P/N 57318).
Mouse mAb-L51/82 (UC Davis/NIH NeuroMab Facility, Antibody Incorporated) was used to detect pro and processed forms of MMP9. Synoviocyte-conditioned media contained an approximately 80 kD form of MMP9 (FIG. 1A, lane 2). […] The 86 kD form was predominant in the presence of 10 μM Compound-α (FIG. 1A, lane 6). Lane 1 was loaded with a standard containing 3 ng of full-length rat proMMP9(1-708) (SEQ ID NO:11) and 3 ng of full-length rat proMMP9(1-708) (SEQ ID NO:11) converted to catalytic rat MMP9 by catalytic MMP3. […]

MMP9 = target: T2, MMP9 (Rattus norvegicus, UniProt P50282); test: Western blot of pro and active MMP9 in ankles of rats with SCW-induced arthritis; format: in vivo; details: Day 26, four hours after AM dose; for Abundance of proMMP9 in ankles: mAb-L51/82, FIG. 3A
T2 construct: Pro and active MMP9 were abundantly present in ankles of SCW-induced vehicle-treated rats; from tissue; host or cells: ankle (tibia-tarsus joint) homogenate, female Lewis rats
T2 sequence (P50282 108-708): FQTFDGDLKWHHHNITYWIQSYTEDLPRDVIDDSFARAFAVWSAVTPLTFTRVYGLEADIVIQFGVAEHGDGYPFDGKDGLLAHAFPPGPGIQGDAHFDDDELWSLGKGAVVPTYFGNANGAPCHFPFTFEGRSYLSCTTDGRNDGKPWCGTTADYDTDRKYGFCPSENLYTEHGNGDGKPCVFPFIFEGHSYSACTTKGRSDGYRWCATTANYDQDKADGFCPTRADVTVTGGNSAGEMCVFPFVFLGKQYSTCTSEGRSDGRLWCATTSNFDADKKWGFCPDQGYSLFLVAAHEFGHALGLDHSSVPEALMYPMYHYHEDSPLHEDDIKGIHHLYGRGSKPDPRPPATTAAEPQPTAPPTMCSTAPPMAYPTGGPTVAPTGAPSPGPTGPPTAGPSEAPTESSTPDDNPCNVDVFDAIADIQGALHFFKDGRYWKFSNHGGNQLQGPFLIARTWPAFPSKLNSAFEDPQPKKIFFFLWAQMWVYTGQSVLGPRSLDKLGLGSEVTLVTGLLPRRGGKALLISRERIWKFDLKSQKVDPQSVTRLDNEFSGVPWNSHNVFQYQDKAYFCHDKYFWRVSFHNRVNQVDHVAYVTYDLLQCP
Method: Hind-limbs were skinned, severed just above the tibia-tarsus joint and below the metatarsals, and the tibia-tarsus joints (ankles) were weighed, snap frozen and pulverized on dry ice using a hammer and anvil. The pulverized tissue was suspended in 3 volumes (w:v) of ice-cold homogenization buffer containing 50 mM Tris pH 7.5, 150 mM NaCl, 5 mM EDTA, 1% Triton X100, 0.05% Brij 30, 10% dimethylsulfoxide and Complete EDTA-free Protease Inhibitor Cocktail (Roche Diagnostics). The suspended tissue was homogenized sequentially with a Kinematica AG Polytron and a Dounce homogenizer. Homogenates were centrifuged at 16,000×g for 10 min at 4° C. and the soluble fractions were saved. Dimethylsulfoxide was removed from a portion of each soluble fraction using PD MiniTrap™ G-25 desalting columns (GE Healthcare). Homogenates (0.25 mL), free of DMSO, were diluted with an equal volume of binding buffer (i.e., homogenization buffer without dimethylsufoxide) and adjusted to contain 50 μL of a 50% slurry of gelatin-conjugated sepharose. Following 2 hours of rotation at 4° C. the beads were washed twice in binding buffer and eluted in 100 μL 2×-reducing Laemmli buffer with heating to 95° C. for 5 minutes. Eluates (20 μL) were resolved on 4-12% NuPAGE gels, transferred to 0.45 μm pore-sized nitrocellose and immunoblotted for detection of proMMP9, active MMP9, and other processed forms using mAb-L51/82 and pAb-1246 as described above for detection of MMP9 forms in synoviocyte and HFL-1 cell conditioned media.
Rats in the study reported in Tables 4 and 5 were sacrificed on Day 26 four hours after the AM dose. Ankles harvested from the right-hind-limbs were processed by the method described above. Pro and active MMP9 were abundantly present in ankles of SCW-induced vehicle-treated rats (FIGS. 3A and 3B, lanes 1-3).

## Cc1nc(C)c(-c2csc(Nc3cc(S(N)(=O)=O)ccc3OC(C)C)n2)s1 [Compound-α, 3-(2′,4′-Dimethyl-[4,5′]bithiazolyl-2-ylamino)-4-isopropoxy-benzenesulfonamide.HBr]
proMMP9; 0.37 μM
  Signal of 80 kD band (INT*mm^2): 74381 INT*mm^2
proMMP9; 1.1 μM
  Signal of 80 kD band (INT*mm^2): 45381 INT*mm^2
proMMP9; 3.3 μM
  Signal of 80 kD band (INT*mm^2): 11554 INT*mm^2
proMMP9; 10 μM
  Signal of 80 kD band (INT*mm^2): 2578 INT*mm^2
proMMP9
  80 kD active MMP9 form detected with mAb L51/82: reduced in a dose dependent fashion
  80 kD active MMP9 detected with pAb-1246: dose-dependent reduction in active MMP9
proMMP9; listed as Compound a
  80 kD active MMP9 form detected with mAb L51/82: dose-dependent reduction in the appearance of the 80 kD active form of MMP9
proMMP9; listed as Compound α
  80 kD active MMP9 detected with pAb-1246: dose-dependent reduction in the appearance of the 80 kD active form of MMP9
MMP9
  Abundance of proMMP9 in ankles: did not reduce the abundance of proMMP9
MMP9; listed as Compound a
  Abundance of proMMP9 in ankles: did not reduce the abundance of proMMP-9
MMP9; pAb-1246 and mAb-L51/82, FIG. 3
  Active 80 kD form of MMP9 in ankles: notable reduction in the active 80 kD form of MMP9
